{"source": "patent US20210284691A1", "about": "“CBX8 CHROMDOMAIN INHIBITORS AND THE USES THEREOF” (Purdue Research Foundation, priority 2019, published 2021)", "key": {"[1]": {"target": "T1, CBX2 ChD (Homo sapiens, UniProt Q14781)", "T1 construct": "CBX chromodomain constructs; host or cells: E. coli BL21 CodonPlus RIL", "T1 sequence (Q14781 12-70 limits assumed)": "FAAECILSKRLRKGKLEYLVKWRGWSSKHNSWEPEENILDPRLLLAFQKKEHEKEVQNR", "test": "Direct fluorescence polarization (FP) binding assay", "procedure": "(§1) Bacterial growth was completed at 37° C. in LB media to OD600=2.0, followed by reducing the temperature to 16° C. over 30-60 min and induced with 1 mM IPTG for 16 h. Cells were collected by centrifugation at 6000 rpm for 20 min and resuspended in ChD binding buffer (20 mM Tris, pH 8, 150 mM NaCl, 0.01% Tween-20, 20 mM imidazole) with 1.0 mM PMSF. Bacteria pellets were stored at −80° C. until needed. Pellets were thawed on ice for 10 min in ChD binding buffer, and shaked at 4° C. supplemented with 100 μg/mL lysozyme, 1 mg/mL CHAPS and 1 mM PMSF, for 30 min. Cells were subsequently lysed by sonication (15 W, 30 s on, followed by 30 s off, twice, followed by 20 W for 1 min). The solubilized fraction was collected by centrifugation at 15000 rpm for 40 min at 4° C. Meanwhile, Ni-NTA Agarose resin (QIAGEN, Venlo, Netherlands) was washed with H2O and equilibrated with ChD binding buffer. The soluble fraction was incubated with the prewashed Ni-NTA agarose resin at 4° C. for 2 h. The resin was then washed 3× with ChD purification buffer (20 mM Tris, pH 8, 150 mM NaCl, 0.01% Tween-20, 1 mM PMSF). Proteins were eluted by the addition of 0.5 M imidazole to ChD purification buffer. The elution was diluted with 30% glycerol, flash frozen, and stored at −80° C. until needed. Protein purity was assessed by SDS-PAGE and concentration was determined by the Pierce 660 kit (Thermo Scientific).\nDirect fluorescence polarization (FP) binding assay of PSL hits against PcG CBX ChDs. FP assays were conducted as above with slight modifications. Alkyne peptides described above were conjugated with a fluorescein group(5-/6-FAM) through copper catalyzed click reaction as previously described. The FAM-labeled peptide was kept constant at 100 nM. The CBX ChD proteins were titrated by 2-fold series dilutions in the assays. The highest protein concentrations, at which FAM-peptide was completely bound, used for each CBX in the direct binding assays depends on the binding affinity of the peptides. Assays were performed for each peptide in four replicates."}, "[2]": {"target": "T2, CBX7 ChD (Homo sapiens, UniProt O95931)", "T2 construct": "CBX chromodomain constructs; host or cells: E. coli BL21 CodonPlus RIL", "T2 sequence (O95931 11-69 limits assumed)": "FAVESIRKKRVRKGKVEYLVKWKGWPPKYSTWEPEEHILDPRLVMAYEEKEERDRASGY", "test": "Direct fluorescence polarization (FP) binding assay", "procedure": "as §1, with “CBX chromodomain constructs (addgene plasmid #25158 (CBX2), #25237 (CBX4), #25296 (CBX6), #25241 (CBX7) and #62514 (CBX8, provided by Cheryl Arrowsmith), Kaustov et al.) were transformed into chemically competent BL21 CodonPlus RIL E. coli cells (Stratagene, La Jolla, Calif.) as N-terminal His6-tagged proteins. Bacterial” for “Bacterial”, “The soluble fraction was incubated with the prewashed Ni-NTA agarose resin at 4° C. for 2 h. The resin was then washed 3× with ChD purification buffer (20 mM Tris, pH 8, 150 mM NaCl, 0.01% Tween-20, 1 mM PMSF). Proteins were eluted by the addition of 0.5 M imidazole to ChD purification buffer. The elution was diluted with 30% glycerol, flash frozen, and stored at −80° C. until needed.” left out\nDirect fluorescence polarization (FP) binding assay of PSL hits against PcG CBX ChDs. […]"}}, "note": "Square brackets hold non-standard residues; d marks the D form. Peptide text beside a SMILES is read from it. * marks the point of attachment. X2 = O=C(NCCCCn1cc(CN*)nn1)c1ccc2c(c1)C1(OC2=O)c2ccc(O)cc2Oc2cc(O)ccc21; Isoxazole3carbonyl(5-iPr) = CC(C)c1cc(C(=O)*)no1; Tyr(3-Cl) = N[C@@H](Cc1ccc(O)c(Cl)c1)C(=O)O; Gly(3-thienyl) = N[C@H](C(=O)O)c1ccsc1; Lys(Et2) = CCN(CC)CCCC[C@H](N)C(=O)O"}
{"smiles": "CC[C@H](C)[C@H](NC(=O)[C@@H](NC(=O)[C@H](Cc1ccc(O)c(Cl)c1)NC(=O)c1cc(C(C)C)on1)c1ccsc1)C(=O)N[C@@H](CCCCN(CC)CC)C(=O)N[C@@H](CO)C(=O)NCc1cn(CCCCNC(=O)c2ccc3c(c2)C2(OC3=O)c3ccc(O)cc3Oc3cc(O)ccc32)nn1", "note": "[SW2_104A-FL] ({Isoxazole3carbonyl(5-iPr)}-[Tyr(3-Cl)][Gly(3-thienyl)]I[Lys(Et2)]S-X2)", "values": [{"measurement": "Kd", "setting": "[1]", "result": "0.051 ± 0.036", "unit": "µM"}, {"measurement": "Kd", "setting": "[2]", "result": "0.84 ± 0.38", "unit": "µM"}]}
